{"source": "patent US9505735B2", "about": "“Compounds for treating infectious diseases” (Whitehead Institute for Biomedical Research, priority 2012, dated 2016)", "key": {"Gas1 and CPY maturation": {"system": "Gas1 and CPY maturation", "assay": "Protein trafficking analysis (immunoblot of reporter proteins)", "type": "cell-based, S. cerevisiae", "settings": "10 μM, 1 hour", "method": "(§1) (A) Immunoblots of lysates prepared from S. cerevisiae treated with gepinacin showing GPI-anchor-selective impairment of protein maturation. The unprocessed (u), precursor (p), and mature (m) forms of the reporter proteins are indicated. The identity of the tagged reporter proteins (top of panel) and the antibodies used for their detection (bottom of panel) are also indicated. Treatment conditions are DMSO (0.05%), gepinacin (GPN, 10 μM) or tunicamycin (Tun, 10 μM). The same lysate was used for both blots. […] GFP expression was monitored by flow cytometry. (C) Anti-fungal susceptibility testing of strains deleted for IRE1 (activator of the UPR) or HAC1 (effector of the UPR) showing their increased sensitivity to gepinacin.\nHA-tagged GAS1 was expressed in strain BY4741 CPY-GFP (Yeast GFP collection (Huh, et al. (2003) Nature 425, 686-691) under control of its own promoter using plasmid pCM-HA-GAS1. This construct was created as previously reported except in a gateway plasmid backbone (Fujita, et al. (2006) Mol Biol Cell 17, 834-850). To assess effects on trafficking, strains were incubated for 1 hour at 30° C. with test compounds. Total cellular protein (5 μg) was separated by electrophoresis (Invitrogen 8% gels) and transferred to nitrocellulose membranes. Blots were hybridized with antibodies against HA (Covance), GFP (Roche), or CPY (Invitrogen). Sizes for the various post-translationally modified products of Gas1HA2 and CPY have been previously reported (Fujita, et al. (2006) Mol Biol Cell 17, 834-850). CPY-GFP was used to facilitate discrimination of CPY processing steps because GFP is cleaved from CPY in the yeast vacuole. The experiment, however, was also performed with untagged CPY with the same results."}, "Candida glabrata": {"system": "Candida glabrata", "assay": "Antifungal susceptibility testing", "type": "cell-based", "method": "(§2) Sensitivity to gepinacin was determined in 96-well, flat bottom microtiter plates using a modification of the NCCLS broth microdilution protocol CLS M27-A3 and RPMI as culture medium. Fungi were inoculated at ˜10^3 cells per ml and incubated for 48 hours at 37° C. after which plates were sealed, shaken and the optical density read at 600 nm (OD600) on a Tecan Safire 2 plate reader. All samples were run in duplicate or triplicate and assays were repeated at least once. Results are expressed as fraction of growth in the absence of compound and the mean and standard deviation are plotted. For the mold A. terreus, inoculum was 10^4 cells per ml and plates were incubated at 35° C. for 48 hours in the dark. Plates were then visually scored as specified by CLSI document M38-A2 to determine the MIC50 and MIC80."}, "S. cerevisiae": {"system": "S. cerevisiae", "assay": "Antifungal susceptibility testing", "type": "cell-based", "method": "as §2"}, "[1]": {"system": "S. cerevisiae strain Sigma 1278B", "assay": "Filamentation on solid media", "type": "cell-based", "settings": "5 μM, 6 days", "method": "For liquid assays, C. albicans strains were grown overnight in YPD with DMSO or 5 μM gepinacin. After dilution to an OD600 of 0.1 in Spider media, growth was continued for an additional 3 hours with agitation at 37° C. in the presence of compound before transfer to a 24 well plate for imaging (Shen, et al. (2008) Proc Natl Acad Sci USA 105, 20918-20923). Assays with S. cerevisiae strain Sigma 1278B on solid media were performed as previously described (Liu, et al. (1994) Science 266, 1723-1726) except gepinacin was added directly to partially cooled plate media and colonies were imaged after growth for 6 or 9 days at 30° C."}, "[2]": {"system": "C. albicans Sc5314 cell surface β-glucan", "assay": "β-Glucan staining (microscopy, flow cytometry)", "type": "cell-based", "method": "Overnight treatment and staining of C. albicans strain Sc5314 was performed as previously described for caspofungin treatment using YPD media at 30° C. to maintain growth in the yeast form (Wheeler, et al. (2006) PLoS Pathog 2, e35). Antibody to (1-3) β-D-glucan was obtained from Biosupplies (Australia). Cells were propidium iodide (PI) stained to assess viability and only PI-negative cells were analyzed. Microscopy was performed on a Nikon Eclipse microscope with a 100× oil objective."}, "[3]": {"system": "S. cerevisiae strains deleted for IRE1 or HAC1", "assay": "Antifungal susceptibility testing of UPR-deficient strains", "type": "cell-based", "settings": "48 hour", "method": "as §1\nAnti-fungal susceptibility testing of strains bearing deletion of IRE1 (activator of the UPR) or HAC1 (effector of the UPR) using either […] (A) or fluconazole (B). Growth was measured by OD600 after 48 hour exposure to serial dilutions of the compounds as indicated. Results are expressed as a fraction of the OD600 measured in the absence of gepinacin. The mean and standard deviation of triplicate determinations are shown."}, "[4]": {"system": "mammalian cells (293T, mouse embryo fibroblasts)", "assay": "Mammalian cell toxicity testing (Cell Titer-Glo)", "type": "cell-based, human", "settings": "20 μM, 48 hours", "method": "(B) Anti-fungal susceptibility testing for an evolutionarily diverse group of fungi treated with gepinacin. For A. terreus the MIC50 and MIC80 are plotted. (C) Anti-fungal susceptibility testing for wild type C. albicans and strains resistant to the three major classes of anti-fungals treated with gepinacin. (D) Mammalian cell toxicity testing for proliferating human cells in culture (293T) or quiescent cells (mouse embryo fibroblasts). Cells were treated with gepinacin (20 μM) for 48 hours after which relative viable cell number was measured by standard luciferase assay (Cell Titer-Glo®, Promega)."}, "Emp24-GFP": {"system": "Emp24-GFP", "assay": "Emp24-GFP distribution (microscopy)", "type": "cell-based, S. cerevisiae", "settings": "5 μM, overnight", "method": "(A) Anti-fungal susceptibility testing of gepinacin using suppressor strains 20-1 and 20-2. (B) The sequence of EMP24 in S. cerevisiae is shown with the location of mutations found by whole genome sequencing in the suppressor strains 20-1 and 20-2 indicated. The sequence in FIG. 4B corresponds to SEQ ID NO: 1. (C) Micrographs showing the redistribution of Emp24-GFP after overnight incubation with 5 μM gepinacin. Green fluorescence and DIC images are merged in the lower panels. Scale bar; 5 μm.\nTo determine if gepinacin does indeed alter trafficking and change Emp24 distribution yeast in which GFP was fused in frame to the 3′ end of genomic EMP24 were examined."}}}
{"smiles": "COc1ccc(NC(=O)COc2cccc(OCC(C)C)c2)cc1", "note": "[gepinacin]", "values": [{"measurement": "CPY (not GPI-anchored) processing", "setting": "Gas1 and CPY maturation", "value": "identical"}, {"measurement": "Gas1 (GPI-anchored) maturation: mature versus precursor form", "setting": "Gas1 and CPY maturation", "value": "inverted"}, {"measurement": "growth inhibition", "setting": "Candida glabrata", "value": "inhibited the growth"}, {"measurement": "growth inhibition", "setting": "S. cerevisiae", "value": "inhibited the growth"}, {"measurement": "filamentation on solid media", "setting": "[1]", "value": "blocked filamentation"}, {"measurement": "increase in median channel fluorescence (β-glucan, flow cytometry) versus control", "setting": "[2]", "value": 4.5, "unit": "fold"}, {"measurement": "β-glucan presentation on the cell surface (immunostaining)", "setting": "[2]; sub-lethal concentrations (5 μM)", "value": "dramatically increase"}, {"measurement": "change of toxicity by deletion of HAC1 or IRE1", "setting": "[3]", "value": "greatly increased the toxicity"}, {"measurement": "cytotoxicity for mammalian cells", "setting": "[4]", "value": "Lack of cytotoxicity"}, {"measurement": "Emp24-GFP localisation", "setting": "Emp24-GFP", "value": "dramatically re-localized into large, bright dotlike structures"}]}
